Reference: ChEMBL document CHEMBL4765421, “Synthesis of natural 3'-Prenylchalconaringenin and biological evaluation of ameliorating non-alcoholic fatty liver disease and metabolic syndrome” (Eur J Med Chem, 2020)
Calls of active or inactive are those of the source. The calls are words filed in the database; no cut-off is given here.

What was measured:
HepG2 [1] = experiment: Hypolipidemic activity in oleic, palmitic, linoleic and arachidonic acid 29:47:18:6 (v/v)-induced hyperlipidemia in human HepG2 cells assessed as reduction in lipid content at 10 uM by Oil Red O staining based assay relative to control; format: functional; parameters: scale not given: the % may be the effect or the level left
3T3-L1 [2] = experiment: Hypolipidemic activity in mouse 3T3-L1 preadipocytes assessed as reduction in lipid content at 10 uM by Oil Red O staining based assay relative to control; format: functional; parameters: scale not given: the % may be the effect or the level left
3T3-L1 [3] = experiment: Hypolipidemic activity in mouse 3T3-L1 mature adipocytes assessed as reduction in lipid content at 10 uM by Oil Red O staining based assay relative to control; format: functional; parameters: scale not given: the % may be the effect or the level left
Mus musculus [4] = experiment: Hypolipidemic activity in tyloxapol-induced Kunming mouse model of hyperlipidemia assessed as reduction in serum total cholesterol level at 100 mg/kg, po measured after 24 hrs; format: functional, organism-based
Mus musculus [5] = experiment: Hypolipidemic activity in tyloxapol-induced Kunming mouse model of hyperlipidemia assessed as reduction in serum triglyceride level at 100 mg/kg, po measured after 24 hrs; format: functional, organism-based
Mus musculus [6] = experiment: Hypolipidemic activity in tyloxapol-induced Kunming mouse model of hyperlipidemia assessed as reduction in serum LDL level at 100 mg/kg, po measured after 24 hrs; format: functional, organism-based
Mus musculus [7] = experiment: Hypolipidemic activity in tyloxapol-induced Kunming mouse model of hyperlipidemia assessed as reduction in serum AST level at 100 mg/kg, po measured after 24 hrs; format: functional, organism-based
Mus musculus [8] = experiment: Hypolipidemic activity in tyloxapol-induced Kunming mouse model of hyperlipidemia assessed as reduction in serum ALT level at 100 mg/kg, po measured after 24 hrs; format: functional, organism-based
Mus musculus [9] = experiment: Hypolipidemic activity in tyloxapol-induced Kunming mouse model of hyperlipidemia assessed as reduction in serum IL6 level at 100 mg/kg, po measured after 24 hrs; format: functional, organism-based
Mus musculus [10] = experiment: Hypolipidemic activity in tyloxapol-induced Kunming mouse model of hyperlipidemia assessed as reduction in fatty liver phenotype at 100 mg/kg, po measured after 24 hrs; format: functional, organism-based
Mus musculus [11] = experiment: Hypolipidemic activity in tyloxapol-induced Kunming mouse model of hyperlipidemia assessed as reduction in lipid level in liver at 100 mg/kg, po measured after 24 hrs by Oil Red O staining based assay; format: functional, organism-based
Mus musculus [12] = experiment: Hypolipidemic activity in tyloxapol-induced Kunming mouse model of hyperlipidemia assessed as increase in appearance of hepatic lobules at 100 mg/kg, po measured after 24 hrs by Oil Red O staining based assay; format: functional, organism-based
Mus musculus [13] = experiment: Hypolipidemic activity in tyloxapol-induced Kunming mouse model of hyperlipidemia assessed as liver index at 100 mg/kg, po measured after 24 hrs (reference value: 65.00 +/- 0.87); format: functional
Mus musculus [14] = experiment: Hypolipidemic activity in tyloxapol-induced Kunming mouse model of hyperlipidemia assessed as kidney index at 100 mg/kg, po measured after 24 hrs (reference value: 11.20 +/- 0.58); format: functional
Mus musculus [15] = experiment: Hypolipidemic activity in tyloxapol-induced Kunming mouse model of hyperlipidemia assessed as spleen index at 100 mg/kg, po measured after 24 hrs (reference value: 3.87 +/- 0.05); format: functional
Mus musculus [16] = experiment: Hypolipidemic activity in tyloxapol-induced Kunming mouse model of hyperlipidemia assessed as perirenal white adipose tissue index at 100 mg/kg, po measured after 24 hrs (reference value: 18.14 +/- 1.44); format: functional
Mus musculus [17] = experiment: Hypolipidemic activity in tyloxapol-induced Kunming mouse model of hyperlipidemia assessed as epididymis white adipose tissue index at 100 mg/kg, po measured after 24 hrs (reference value: 23.43 +/- 3.10); format: functional
Mus musculus [18] = experiment: In vivo induction of AMPK in tyloxapol-induced Kunming mouse model of hyperlipidemia assessed as increase in AKT phosphorylation in white adipose tissue at 100 mg/kg, po measured after 24 hrs by Western blot analysis; format: functional, organism-based
Mus musculus [19] = experiment: In vivo induction of AMPK in tyloxapol-induced Kunming mouse model of hyperlipidemia assessed as increase in AKT phosphorylation in liver at 100 mg/kg, po measured after 24 hrs by Western blot analysis; format: functional, organism-based
Mus musculus [20] = experiment: In vivo induction of AMPK in tyloxapol-induced Kunming mouse model of hyperlipidemia assessed as increase in AMPKalpha phosphorylation in white adipose tissue at 100 mg/kg, po measured after 24 hrs by Western blot analysis; format: functional, organism-based
Mus musculus [21] = experiment: In vivo induction of AMPK in tyloxapol-induced Kunming mouse model of hyperlipidemia assessed as increase in AMPKalpha phosphorylation in liver at 100 mg/kg, po measured after 24 hrs by Western blot analysis; format: functional, organism-based
Mus musculus [22] = experiment: In vivo induction of AMPK in tyloxapol-induced Kunming mouse model of hyperlipidemia assessed as increase in ACC phosphorylation in white adipose tissue at 100 mg/kg, po measured after 24 hrs by Western blot analysis; format: functional, organism-based
Mus musculus [23] = experiment: In vivo induction of AMPK in tyloxapol-induced Kunming mouse model of hyperlipidemia assessed as increase in ACC phosphorylation in liver at 100 mg/kg, po measured after 24 hrs by Western blot analysis; format: functional, organism-based
Mus musculus [24] = experiment: In vivo induction of AMPK in tyloxapol-induced Kunming mouse model of hyperlipidemia assessed as increase in CPT-1A phosphorylation in white adipose tissue at 100 mg/kg, po measured after 24 hrs by Western blot analysis; format: functional, organism-based
Mus musculus [25] = experiment: In vivo induction of AMPK in tyloxapol-induced Kunming mouse model of hyperlipidemia assessed as increase in CPT-1A phosphorylation in liver at 100 mg/kg, po measured after 24 hrs by Western blot analysis; format: functional, organism-based
Mus musculus [26] = experiment: In vivo induction of AMPK in tyloxapol-induced Kunming mouse model of hyperlipidemia assessed as decrease in SREBP1-C expression in white adipose tissue at 100 mg/kg, po measured after 24 hrs by Western blot analysis; format: functional, organism-based
Mus musculus [27] = experiment: In vivo induction of AMPK in tyloxapol-induced Kunming mouse model of hyperlipidemia assessed as decrease in SREBP1-C expression in liver at 100 mg/kg, po measured after 24 hrs by Western blot analysis; format: functional, organism-based
Mus musculus [28] = experiment: In vivo induction of AMPK in tyloxapol-induced Kunming mouse model of hyperlipidemia assessed as decrease in FAS expression in white adipose tissue at 100 mg/kg, po measured after 24 hrs by Western blot analysis; format: functional, organism-based
Mus musculus [29] = experiment: In vivo induction of AMPK in tyloxapol-induced Kunming mouse model of hyperlipidemia assessed as decrease in FAS expression in liver at 100 mg/kg, po measured after 24 hrs by Western blot analysis; format: functional, organism-based
Mus musculus [30] = experiment: In vivo effect on PPAR signaling in tyloxapol-induced Kunming mouse model of hyperlipidemia assessed as increase in mTOR phosphorylation in liver at 100 mg/kg, po measured after 24 hrs by Western blot analysis; format: functional, organism-based
Mus musculus [31] = experiment: In vivo effect on PPAR signaling in tyloxapol-induced Kunming mouse model of hyperlipidemia assessed as increase in mTOR phosphorylation in white adipose tissue at 100 mg/kg, po measured after 24 hrs by Western blot analysis; format: functional, organism-based
Mus musculus [32] = experiment: In vivo effect on PPAR signaling in tyloxapol-induced Kunming mouse model of hyperlipidemia assessed as increase in PPARalpha expression in white adipose tissue at 100 mg/kg, po measured after 24 hrs by Western blot analysis; format: functional, organism-based
Mus musculus [33] = experiment: In vivo effect on PPAR signaling in tyloxapol-induced Kunming mouse model of hyperlipidemia assessed as increase in PPARalpha expression in liver at 100 mg/kg, po measured after 24 hrs by Western blot analysis; format: functional, organism-based
Mus musculus [34] = experiment: In vivo effect on PPAR signaling in tyloxapol-induced Kunming mouse model of hyperlipidemia assessed as decrease in PPARbeta expression in white adipose tissue at 100 mg/kg, po measured after 24 hrs by Western blot analysis; format: functional, organism-based
Mus musculus [35] = experiment: In vivo effect on PPAR signaling in tyloxapol-induced Kunming mouse model of hyperlipidemia assessed as increase in PPARbeta expression in liver at 100 mg/kg, po measured after 24 hrs by Western blot analysis; format: functional, organism-based
Mus musculus [36] = experiment: In vivo effect on PPAR signaling in tyloxapol-induced Kunming mouse model of hyperlipidemia assessed as decrease in PPARgamma expression in white adipose tissue at 100 mg/kg, po measured after 24 hrs by Western blot analysis; format: functional, organism-based
Mus musculus [37] = experiment: In vivo effect on PPAR signaling in tyloxapol-induced Kunming mouse model of hyperlipidemia assessed as decrease in PPARgamma expression in liver at 100 mg/kg, po measured after 24 hrs by Western blot analysis; format: functional, organism-based
HepG2 [38] = experiment: Activation of AMPK in oleic, palmitic, linoleic and arachidonic acid 29:47:18:6 (v/v)-induced human HepG2 cells assessed as increase in AMPK phosphorylation by Western blot; settings: filed as activator
HepG2 [39] = experiment: Activation of AMPK in oleic, palmitic, linoleic and arachidonic acid 29:47:18:6 (v/v)-induced human HepG2 cells assessed as increase in ACC phosphorylation by Western blot; settings: filed as activator
HepG2 [40] = experiment: Cytotoxicity against human HepG2 cells assessed as reduction in cell viability at 10 to 20 uM by MTT assay; format: cell-based; settings: hepg2, 20 µM, dose 10-20 µM

SMILES | Activity (Mus musculus [4]) | Activity (Mus musculus [5]) | Activity (Mus musculus [6]) | Activity (Mus musculus [7]) | Activity (Mus musculus [8]) | Activity (Mus musculus [9]) | Activity (Mus musculus [10]) | Activity (Mus musculus [11]) | Activity (Mus musculus [12]) | Activity_index (Mus musculus [13]) | Activity_index (Mus musculus [14]) | Activity_index (Mus musculus [15]) | Activity_index (Mus musculus [16]) | Activity_index (Mus musculus [17]) | Activity (Mus musculus [18]) | Activity (Mus musculus [19]) | Activity (Mus musculus [20]) | Activity (Mus musculus [21]) | Activity (Mus musculus [22]) | Activity (Mus musculus [23]) | also measured
CC[C@H](C)C(=O)O[C@H]1C[C@@H](C)C=C2C=C[C@H](C)[C@H](CC[C@@H]3C[C@@H](O)CC(=O)O3)[C@H]21 [LOVASTATIN] | – | – | – | – | – | – | – | – | – | – | – | – | – | – | – | – | – | – | – | – | Activity (HepG2 [1]): 41.17%; Activity (3T3-L1 [2]): 67.14%; Activity (3T3-L1 [3]): 47.2%
CC(C)OC(=O)C(C)(C)Oc1ccc(C(=O)c2ccc(Cl)cc2)cc1 [FENOFIBRATE] | Active | Active | Active | Active | Active | Active | Active | Active | Active | 56.59 | 9.65 | 2.85 | 14.55 | 15.43 | Active | Active | Active | Active | Active | Active | Activity (Mus musculus [24]): Active; Activity (Mus musculus [25]): Active; Activity (Mus musculus [26]): Active; Activity (Mus musculus [27]): Active; Activity (Mus musculus [28]): Active; Activity (Mus musculus [29]): Active; Activity (Mus musculus [30]): Active; Activity (Mus musculus [31]): Active; Activity (Mus musculus [32]): Active; Activity (Mus musculus [33]): Active; Activity (Mus musculus [34]): Active; Activity (Mus musculus [35]): Active; Activity (Mus musculus [36]): Active; Activity (Mus musculus [37]): Active
NC(=O)c1ncn([C@@H]2O[C@H](CO)[C@@H](O)[C@H]2O)c1N [ACADESINE] | Active | Active | Active | Active | Active | Active | Active | Active | Active | 57.41 | 8.64 | 3.01 | 15.94 | 20.09 | Active | Active | Active | Active | Active | Active | Activity (HepG2 [38]): Active; Activity (HepG2 [39]): Active; Activity (Mus musculus [24]): Active; Activity (Mus musculus [25]): Active; Activity (Mus musculus [26]): Active; Activity (Mus musculus [27]): Active; Activity (Mus musculus [28]): Active; Activity (Mus musculus [29]): Active; Activity (Mus musculus [30]): Active; Activity (Mus musculus [31]): Active; Activity (Mus musculus [32]): Active; Activity (Mus musculus [33]): Active; Activity (Mus musculus [34]): Active; Activity (Mus musculus [35]): Active; Activity (Mus musculus [36]): Active; Activity (Mus musculus [37]): Active
O=C(/C=C/c1ccc(O)cc1)c1c(O)cc(O)cc1O [4,2',4',6'-TETRAHYDROXYCHALCONE] | – | – | – | – | – | – | – | – | – | – | – | – | – | – | – | – | – | – | – | – | Activity (HepG2 [40]): Non-Toxic
CC(C)=CCc1c(O)cc(O)c(C(=O)/C=C/c2ccc(O)cc2)c1O [DEMETHYLXANTHOHUMOL] | – | – | – | – | – | – | – | – | – | – | – | – | – | – | – | – | – | – | – | – | Activity (HepG2 [40]): Non-Toxic
